# Assay results: the supplement of paper PMC10307832
# Key:
# Experiment in all cases: relative viability (nuclei count vs DMSO), 5 days (fraction); higher = more cells survive
# [1] = compound: CC1=CC=C(C=C1)C(=O)CN2C3=C(CCCC3)SC2=N [Pifithrin_alpha] + C[C@@H](Oc1cc(-c2cnn(C3CCNCC3)c2)cnc1N)c1c(Cl)ccc(F)c1Cl [Crizotinib] (partner 1 µM)
# Procedure, shortened: (§1)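 After 5 days of treatment, lung cancer cells in 1536-well plates were fixed and stained in a single step (final 0.05% Triton X-100, 1% formaldehyde, 1 ug/ml Hoechst) and their nuclei counted on 4× images. Treatment had been applied by pin tool the day after seeding as one drug alone or as a fixed anchor-drug dose with five library-drug doses (not always all listed) in √10 steps. Relative viability is the nuclei count of treated wells divided by that of vehicle wells, and values are medians of duplicate plates.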
# [2] = compound: CC1=CC=C(C=C1)C(=O)CN2C3=C(CCCC3)SC2=N [Pifithrin_alpha] + N=C(N)NC(=N)NCCc1ccccc1 [Phenformin] (partner 250 µM)
# Procedure, shortened: as §1
# Axitinib + Dasatinib = compound: CNC(=O)c1ccccc1Sc1ccc2c(/C=C/c3ccccn3)n[nH]c2c1 [Axitinib] + Cc1nc(Nc2ncc(C(=O)Nc3c(C)cccc3Cl)s2)cc(N2CCN(CCO)CC2)n1 [Dasatinib] (partner 0.075 µM)
# Procedure, shortened: as §1
# Bemcentinib + Bortezomib = compound: Nc1nc(Nc2ccc3c(c2)CC[C@@H](N2CCCC2)CC3)nn1-c1cc2c(nn1)-c1ccccc1CCC2 [Bemcentinib] + CC(C)C[C@H](NC(=O)[C@H](Cc1ccccc1)NC(=O)c1cnccn1)B(O)O [Bortezomib] (partner 0.002 µM)
# Procedure, shortened: as §1
Cell Line,relative viability ([1]; first compound 1 µM),relative viability ([1]; first compound 3.162 µM),relative viability ([1]; first compound 10 µM),relative viability ([1]; first compound 31.62 µM),relative viability ([1]; first compound 100 µM),relative viability ([2]; first compound 1 µM),relative viability ([2]; first compound 3.162 µM),relative viability ([2]; first compound 10 µM),relative viability ([2]; first compound 31.62 µM),relative viability ([2]; first compound 100 µM),relative viability (Axitinib + Dasatinib; first compound 0.005 µM),relative viability (Axitinib + Dasatinib; first compound 0.01581 µM),relative viability (Axitinib + Dasatinib; first compound 0.05 µM),relative viability (Axitinib + Dasatinib; first compound 0.1581 µM),relative viability (Axitinib + Dasatinib; first compound 0.5 µM),relative viability (Bemcentinib + Bortezomib; first compound 0.04 µM),relative viability (Bemcentinib + Bortezomib; first compound 0.1265 µM),relative viability (Bemcentinib + Bortezomib; first compound 0.4 µM),relative viability (Bemcentinib + Bortezomib; first compound 1.265 µM),relative viability (Bemcentinib + Bortezomib; first compound 4 µM)
201T,1.04,0.902,0.862,0.808,0.765,0.401,0.385,0.383,0.441,0.457,0.557,0.553,0.567,0.526,0.562,0.864,1.15,1.12,0.978,1.1
A549,0.989,0.761,0.817,0.552,0.799,,0.272,0.374,0.315,0.305,,,,,,,,,,
A-427,1,0.85,0.857,0.574,0.932,0.318,0.305,0.245,0.235,0.264,0.69,0.644,0.807,0.697,0.769,,0.971,0.871,0.942,0.967
ABC-1,1.09,0.999,1.22,0.817,0.597,0.251,0.218,0.227,0.255,0.227,0.738,0.686,0.486,,0.638,0.269,0.285,0.289,0.285,0.257
BEN,0.878,1.03,1.05,0.84,1.34,0.296,0.595,0.276,0.246,0.289,0.293,0.264,0.314,0.365,0.263,0.56,0.899,0.891,0.506,0.776
CAL-12T,,0.656,0.58,0.5,0.555,0.604,0.558,0.533,,0.457,0.603,0.448,0.367,0.38,0.405,0.977,0.936,0.953,0.736,0.908
COR-L23,0.583,0.723,0.683,,0.644,0.465,0.46,0.426,,0.509,0.53,0.542,0.438,0.493,0.674,1.16,1.14,1.17,1.27,1.24
COR-L 105,0.678,0.644,0.712,0.469,0.75,0.525,0.484,0.55,0.436,0.403,0.318,0.327,0.417,0.303,0.415,0.766,0.71,1.04,0.739,0.74
Calu-6,0.944,0.742,0.813,0.605,0.85,,,,,,,,,,,1.05,1.07,1.07,1.08,1.12
ChaGo-K-1,1.2,1.27,1.08,0.708,1.03,0.485,0.5,0.491,0.387,0.472,0.611,0.552,0.583,0.423,0.611,0.905,1.1,0.98,0.804,0.766
EBC-1,0.187,0.21,0.168,0.16,0.152,,,,,,,,,,,0.585,0.547,0.525,0.458,0.585
EKVX,1.02,0.716,0.725,0.46,0.738,0.207,,0.201,0.213,0.199,0.602,0.31,0.334,0.435,0.507,1.02,1.36,1.03,0.996,0.995
EMC-BAC-2,0.733,0.745,0.627,0.416,0.645,0.504,0.511,0.478,,0.556,0.353,0.327,0.315,0.379,0.383,1.07,1.15,1.07,0.952,1.11
EPLC-272H,,0.921,0.805,0.601,1.05,0.266,0.305,0.364,0.246,0.222,0.342,0.337,0.372,0.353,0.241,,1,0.91,0.79,0.876
H3255,0.762,0.948,0.826,0.469,0.656,0.364,0.97,0.384,0.389,0.342,0.351,0.341,0.359,0.38,0.373,0.648,0.863,0.767,0.803,0.715
HARA,1.26,1.11,1.19,0.791,1.24,,0.441,0.409,,0.407,0.211,0.2,0.293,0.246,0.253,1.19,1.17,1.27,1.15,1.1
HCC-15,0.921,1.05,0.755,0.544,0.861,0.487,0.449,0.435,0.249,0.279,0.658,0.673,0.658,0.56,0.622,0.931,1.19,1.12,1,1.07
HCC-44,0.816,0.742,0.647,0.515,0.65,0.17,0.164,0.171,0.133,0.178,,,,,,0.974,0.92,0.992,0.89,0.917
